Measurements as given in patent US9073868B2, “Benzazepine derivatives useful as vasopressin antagonists” (Otsuka Pharmaceutical Co., Ltd., priority 2007, dated 2015).

Tests used:
[1] = Test Example 1: oral absorption in rats, serum concentrations of tolvaptan after oral suspension; type: in vivo; details: male rats deprived of food about 18 hours, forced oral administration of suspension, 1 mg of tolvaptan per kg, Mean ± S.D. (n = 3 or 4)
Protocol: The compounds obtained in Examples 1, 50, and 52 were used as test compounds.
Each test compound, (Examples 1, 50, and 52) equivalent to 10 mg of tolvaptan, and hypromellose (125 mg) were suspended in 25 ml of water for injection in a porcelain mortar, to thereby obtain a suspension equivalent to 0.4 mg of tolvaptan per ml of suspension.
A spray-dried tolvaptan powder equivalent to 60 mg of tolvaptan, which was prepared in a similar manner to Example 3 of Japanese Unexamined Patent Publication No. 1999-21241, was suspended in 50 ml of water for injection in a porcelain mortar. This suspension was diluted three-fold with water for injection, preparing a suspension of spray-dried powder equivalent to 0.4 mg of tolvaptan per ml of suspension.
The following tests were conducted to examine the oral absorption features of each suspension. Male rats (body weight: about 180 g) that had been deprived of food for about 18 hours were used as test animals. The above suspensions were each administered by forced oral administration using a sonde for oral administration at a dose of 2.5 ml/kg of body weight, producing 1 mg of tolvaptan per kg of body weight. The blood samples were collected from the jugular vein under light diethyl ether anesthesia at the time of 0.5 hour, 1 hour, 2 hours, 4 hours, 6 hours, and 8 hours later after dosing. The serum concentrations of tolvaptan (ng/ml) were determined by using UPLC-MS/MS (Waters).
The average phaLmacokinetic parameters were calculated from the results.

[2] = Test Example 2: oral absorption in rats, serum concentrations of tolvaptan after oral solution or suspension; type: in vivo; details: rat, male rats fasted about 18 hours, forced oral administration of suspension or solution, 1 mg of tolvaptan per kg, Mean ± S.D. (n = 4)
Protocol: The compounds obtained in Examples 74 was used as test compounds.
The test compound, (Examples 1) equivalent to 10 mg of tolvaptan, and hydroxypropylcellulose (5 mg) was dissolved in 25 ml of water for injection in a porcelain mortar, to thereby obtain a solution equivalent to 0.4 mg of tolvaptan per ml.
A spray-dried tolvaptan powder equivalent to 10 mg of tolvaptan was suspended in 25 ml of water for injection in a porcelain mortar, to obtain a suspension of spray-dried powder equivalent to 0.4 mg of tolvaptan per ml of suspension.
The following tests were conducted to examine the oral absorption features of each suspension and solution. Male rats (body weight: about 160 g) that had been fasted for about 18 hours were used as test animals. The above suspension or solution were each administered by forced oral administration using a sonde for oral administration at a dose of 2.5 ml/kg of body weight, producing 1 mg of tolvaptan per kg of body weight. The blood samples were collected from the jugular vein under light diethyl ether anesthesia at the time of 0.5 hour, 1 hour, 2 hours, 3 hours, 4 hours, 6 hours, 8 hours and 10 hours later after dosing. The serum concentrations of tolvaptan (ng/ml) were determined by using UPLC-MS/MS (Waters).
The average pharmacokinetic parameters were calculated from the results.

AUC(0-inf) ([1]; rat) [ng·h/mL] | MRT inf ([1]; rat) [h] | Cmax ([1]; rat, read-out: Cmax) [ng/mL] | Tmax ([1]; rat, read-out: Tmax) [h] | AUC(0-inf) [2] [ng·h/mL] | Cmax [2] [ng/mL] | MRT inf [2] [h] | Tmax [2] [h] | SMILES | AUC∞ [1] [ng·h/mL] | Cmax [1] [ng/mL] | MRT∞ [1] [h] | Tmax [1] [h]
– | – | – | – | – | – | – | – | Cc1ccccc1C(=O)Nc1ccc(C(=O)N2CCCC(OC(=O)CCC(=O)O)c3cc(Cl)ccc32)c(C)c1 (stereo not drawn) [Example 1, {7-Chloro-1-[2-methyl-4-(2-methyl-benzoylamino)-benzoyl]-2,3,4,5-tetrahydro-1H-benzo[b]azepin-5-yl} Succinate] | 96.1 ± 18.1 | 16.2 ± 4.8 | 4.45 ± 0.64 | 2.00 ± 0.00
80.9 ± 28.5 | 2.95 ± 0.35 | 26.4 ± 12.9 | 1.5 ± 0.58 | 92.4 ± 27 | 26.9 ± 11.6 | 2.96 ± 0.47 | 1 | Cc1ccccc1C(=O)Nc1ccc(C(=O)N2CCCC(O)c3cc(Cl)ccc32)c(C)c1 (stereo not drawn) [Tolvaptan] | – | – | – | –
